According to paper PMC4979471 (Cell Death Discovery, 2015):
Like-named read-outs stand apart in the source and are kept apart here.

Experiments:
Assay in all cases: Kinase selectivity, P33-radiolabeled assay
Type in all cases: biochemical
Settings in all cases: 10 μM ATP
[1] = target: T1, PKN2/PRK2 (Homo sapiens, UniProt Q16513)
T1 construct: purchased Reaction Biology Corp
How it was run: (§1)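 Reactions contained 10 μM ATP and 10 μM test compound, each run in duplicate. Kinase activity is expressed as a percentage of DMSO-treated controls.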

[2] = target: T2, P38b/MAPK11 (Homo sapiens, UniProt Q15759)
T2 construct: purchased Reaction Biology Corp
T2 sequence (Q15759 whole entry): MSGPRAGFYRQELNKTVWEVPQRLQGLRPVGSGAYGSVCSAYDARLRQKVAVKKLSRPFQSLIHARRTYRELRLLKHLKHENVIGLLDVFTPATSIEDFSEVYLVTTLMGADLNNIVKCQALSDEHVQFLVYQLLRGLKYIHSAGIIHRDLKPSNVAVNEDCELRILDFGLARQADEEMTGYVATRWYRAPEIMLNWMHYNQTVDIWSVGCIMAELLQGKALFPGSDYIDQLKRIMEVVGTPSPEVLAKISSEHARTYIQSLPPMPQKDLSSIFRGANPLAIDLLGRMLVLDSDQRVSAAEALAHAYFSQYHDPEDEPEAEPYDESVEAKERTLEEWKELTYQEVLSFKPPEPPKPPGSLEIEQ
How it was run: as §1

[3] = target: T3, PKG1b (Homo sapiens, UniProt Q13976)
T3 construct: purchased Reaction Biology Corp
T3 sequence (Q13976 1-686 isoform Q13976-2): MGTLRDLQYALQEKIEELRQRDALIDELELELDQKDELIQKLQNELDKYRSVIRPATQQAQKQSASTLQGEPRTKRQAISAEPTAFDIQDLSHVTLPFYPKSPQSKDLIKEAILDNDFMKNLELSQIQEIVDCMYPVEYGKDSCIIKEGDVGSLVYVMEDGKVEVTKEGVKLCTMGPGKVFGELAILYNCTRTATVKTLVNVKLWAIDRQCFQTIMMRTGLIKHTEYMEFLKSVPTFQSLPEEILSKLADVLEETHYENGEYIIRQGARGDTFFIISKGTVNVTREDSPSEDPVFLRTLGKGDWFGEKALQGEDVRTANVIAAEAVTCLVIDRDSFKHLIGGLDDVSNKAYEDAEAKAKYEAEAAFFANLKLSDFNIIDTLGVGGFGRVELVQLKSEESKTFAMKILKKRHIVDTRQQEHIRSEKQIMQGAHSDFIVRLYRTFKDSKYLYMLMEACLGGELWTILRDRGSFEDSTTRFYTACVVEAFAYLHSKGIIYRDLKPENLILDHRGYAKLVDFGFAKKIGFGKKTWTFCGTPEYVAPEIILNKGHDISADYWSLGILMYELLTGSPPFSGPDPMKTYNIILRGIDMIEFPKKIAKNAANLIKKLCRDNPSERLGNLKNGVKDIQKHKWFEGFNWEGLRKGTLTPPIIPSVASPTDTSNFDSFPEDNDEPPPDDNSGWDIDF
How it was run: as §1

[4] = target: T4, PKG2/PRKG2 (Homo sapiens, UniProt Q13237)
T4 construct: purchased Reaction Biology Corp
T4 sequence (Q13237 1-762): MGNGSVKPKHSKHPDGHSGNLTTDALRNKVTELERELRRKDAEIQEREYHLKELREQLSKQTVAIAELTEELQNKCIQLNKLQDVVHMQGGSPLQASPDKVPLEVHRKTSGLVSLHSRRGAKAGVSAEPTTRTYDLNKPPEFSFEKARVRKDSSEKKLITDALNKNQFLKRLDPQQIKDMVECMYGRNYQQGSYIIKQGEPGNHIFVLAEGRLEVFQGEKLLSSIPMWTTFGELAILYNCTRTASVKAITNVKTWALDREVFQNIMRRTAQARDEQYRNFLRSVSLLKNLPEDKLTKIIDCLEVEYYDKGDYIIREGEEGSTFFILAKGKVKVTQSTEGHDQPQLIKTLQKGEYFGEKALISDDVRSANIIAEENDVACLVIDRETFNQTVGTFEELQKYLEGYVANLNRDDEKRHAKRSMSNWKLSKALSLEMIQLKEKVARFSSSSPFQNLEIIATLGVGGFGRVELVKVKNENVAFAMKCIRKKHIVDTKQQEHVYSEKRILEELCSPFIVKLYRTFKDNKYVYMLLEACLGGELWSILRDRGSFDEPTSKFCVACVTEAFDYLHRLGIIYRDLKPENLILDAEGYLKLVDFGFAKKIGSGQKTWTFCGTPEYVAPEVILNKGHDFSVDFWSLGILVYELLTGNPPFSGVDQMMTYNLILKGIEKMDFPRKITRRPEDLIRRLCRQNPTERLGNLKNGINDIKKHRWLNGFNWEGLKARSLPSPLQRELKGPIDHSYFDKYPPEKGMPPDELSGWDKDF
How it was run: as §1

[5] = target: T5, TYK2 (Homo sapiens, UniProt P29597)
T5 construct: purchased Reaction Biology Corp
T5 sequence (P29597 whole entry): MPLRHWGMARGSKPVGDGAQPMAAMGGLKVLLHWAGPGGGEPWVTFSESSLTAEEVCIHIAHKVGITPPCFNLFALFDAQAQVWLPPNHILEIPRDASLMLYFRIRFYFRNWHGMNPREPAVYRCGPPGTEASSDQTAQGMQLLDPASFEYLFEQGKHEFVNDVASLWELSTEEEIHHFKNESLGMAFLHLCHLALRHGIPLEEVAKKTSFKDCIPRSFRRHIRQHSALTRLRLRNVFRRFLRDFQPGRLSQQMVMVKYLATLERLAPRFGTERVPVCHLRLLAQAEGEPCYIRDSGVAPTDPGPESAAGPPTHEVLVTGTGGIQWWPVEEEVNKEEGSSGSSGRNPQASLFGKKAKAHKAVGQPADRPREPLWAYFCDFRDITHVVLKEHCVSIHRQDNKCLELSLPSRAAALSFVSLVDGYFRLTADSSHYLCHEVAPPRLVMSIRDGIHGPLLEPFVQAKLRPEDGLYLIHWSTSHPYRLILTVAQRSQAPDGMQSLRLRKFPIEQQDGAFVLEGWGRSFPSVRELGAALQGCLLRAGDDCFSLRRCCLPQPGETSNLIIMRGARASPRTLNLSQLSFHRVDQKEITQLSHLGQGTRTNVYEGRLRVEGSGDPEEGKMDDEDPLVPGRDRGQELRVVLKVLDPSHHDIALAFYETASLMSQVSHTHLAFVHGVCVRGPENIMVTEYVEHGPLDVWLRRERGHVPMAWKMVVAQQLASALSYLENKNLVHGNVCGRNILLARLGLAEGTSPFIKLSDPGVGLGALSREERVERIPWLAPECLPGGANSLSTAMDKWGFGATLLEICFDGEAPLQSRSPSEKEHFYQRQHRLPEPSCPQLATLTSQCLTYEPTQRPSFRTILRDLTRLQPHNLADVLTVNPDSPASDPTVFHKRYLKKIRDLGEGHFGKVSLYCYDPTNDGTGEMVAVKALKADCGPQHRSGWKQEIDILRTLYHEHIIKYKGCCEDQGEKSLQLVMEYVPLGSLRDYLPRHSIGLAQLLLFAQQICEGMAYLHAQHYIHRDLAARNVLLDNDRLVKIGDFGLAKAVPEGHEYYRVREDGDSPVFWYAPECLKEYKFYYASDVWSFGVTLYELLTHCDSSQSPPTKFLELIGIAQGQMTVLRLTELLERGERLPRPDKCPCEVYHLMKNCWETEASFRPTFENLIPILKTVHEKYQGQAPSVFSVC
How it was run: as §1

[6] = target: T6, FLT4/VEGFR3 (Homo sapiens, UniProt P35916)
T6 construct: purchased Reaction Biology Corp
T6 sequence (P35916 25-1363): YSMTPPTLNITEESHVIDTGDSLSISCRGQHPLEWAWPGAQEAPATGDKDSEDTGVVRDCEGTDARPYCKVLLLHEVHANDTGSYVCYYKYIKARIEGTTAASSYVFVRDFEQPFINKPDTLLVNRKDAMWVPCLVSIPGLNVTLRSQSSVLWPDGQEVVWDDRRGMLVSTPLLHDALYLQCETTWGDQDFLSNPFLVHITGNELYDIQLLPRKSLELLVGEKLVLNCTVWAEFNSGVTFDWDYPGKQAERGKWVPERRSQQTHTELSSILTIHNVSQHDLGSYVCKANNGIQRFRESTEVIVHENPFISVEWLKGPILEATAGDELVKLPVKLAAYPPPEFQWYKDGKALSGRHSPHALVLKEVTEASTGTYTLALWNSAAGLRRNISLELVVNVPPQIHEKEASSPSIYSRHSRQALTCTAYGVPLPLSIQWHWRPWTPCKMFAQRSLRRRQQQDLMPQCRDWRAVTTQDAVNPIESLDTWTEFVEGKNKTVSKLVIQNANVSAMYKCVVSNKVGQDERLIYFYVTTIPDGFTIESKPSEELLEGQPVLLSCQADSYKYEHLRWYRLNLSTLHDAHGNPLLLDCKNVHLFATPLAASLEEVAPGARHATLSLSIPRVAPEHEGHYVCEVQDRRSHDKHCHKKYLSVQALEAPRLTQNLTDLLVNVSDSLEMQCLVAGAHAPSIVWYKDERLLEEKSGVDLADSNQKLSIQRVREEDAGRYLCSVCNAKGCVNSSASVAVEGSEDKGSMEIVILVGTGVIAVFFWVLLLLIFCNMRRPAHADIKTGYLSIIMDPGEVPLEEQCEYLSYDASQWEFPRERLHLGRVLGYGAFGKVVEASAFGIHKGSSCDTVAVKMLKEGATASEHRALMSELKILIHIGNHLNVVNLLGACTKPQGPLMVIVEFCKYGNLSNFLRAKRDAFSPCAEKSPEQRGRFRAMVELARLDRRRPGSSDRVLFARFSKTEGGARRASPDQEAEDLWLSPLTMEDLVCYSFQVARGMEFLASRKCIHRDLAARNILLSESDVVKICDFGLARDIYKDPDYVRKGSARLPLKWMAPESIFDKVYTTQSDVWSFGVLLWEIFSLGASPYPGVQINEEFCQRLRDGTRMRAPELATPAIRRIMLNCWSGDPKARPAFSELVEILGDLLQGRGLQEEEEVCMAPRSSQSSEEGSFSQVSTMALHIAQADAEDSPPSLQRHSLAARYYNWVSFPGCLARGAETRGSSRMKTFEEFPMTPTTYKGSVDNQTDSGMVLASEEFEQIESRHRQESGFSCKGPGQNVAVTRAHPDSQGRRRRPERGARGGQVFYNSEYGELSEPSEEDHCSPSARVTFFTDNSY
How it was run: as §1

[7] = target: T7, PKCzeta (Homo sapiens, UniProt Q05513)
T7 construct: purchased Reaction Biology Corp
T7 sequence (Q05513 1-592): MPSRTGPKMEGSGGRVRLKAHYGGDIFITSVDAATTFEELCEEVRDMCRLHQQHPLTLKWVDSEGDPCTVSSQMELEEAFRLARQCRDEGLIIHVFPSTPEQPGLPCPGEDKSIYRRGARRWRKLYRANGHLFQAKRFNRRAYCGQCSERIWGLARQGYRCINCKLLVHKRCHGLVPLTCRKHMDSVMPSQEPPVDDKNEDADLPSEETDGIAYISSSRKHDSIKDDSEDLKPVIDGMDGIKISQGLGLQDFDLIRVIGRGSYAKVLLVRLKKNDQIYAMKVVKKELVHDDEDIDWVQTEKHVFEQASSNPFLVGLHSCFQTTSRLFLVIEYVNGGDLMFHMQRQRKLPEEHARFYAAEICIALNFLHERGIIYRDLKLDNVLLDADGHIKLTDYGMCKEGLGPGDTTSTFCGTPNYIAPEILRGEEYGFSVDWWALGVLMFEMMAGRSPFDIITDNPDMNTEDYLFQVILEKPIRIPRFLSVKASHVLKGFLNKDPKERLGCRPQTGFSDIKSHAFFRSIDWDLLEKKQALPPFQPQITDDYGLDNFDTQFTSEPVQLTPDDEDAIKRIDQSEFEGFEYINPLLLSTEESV
How it was run: as §1

[8] = target: T8, PKCd (Homo sapiens, UniProt Q05655)
T8 construct: purchased Reaction Biology Corp
T8 sequence (Q05655 whole entry): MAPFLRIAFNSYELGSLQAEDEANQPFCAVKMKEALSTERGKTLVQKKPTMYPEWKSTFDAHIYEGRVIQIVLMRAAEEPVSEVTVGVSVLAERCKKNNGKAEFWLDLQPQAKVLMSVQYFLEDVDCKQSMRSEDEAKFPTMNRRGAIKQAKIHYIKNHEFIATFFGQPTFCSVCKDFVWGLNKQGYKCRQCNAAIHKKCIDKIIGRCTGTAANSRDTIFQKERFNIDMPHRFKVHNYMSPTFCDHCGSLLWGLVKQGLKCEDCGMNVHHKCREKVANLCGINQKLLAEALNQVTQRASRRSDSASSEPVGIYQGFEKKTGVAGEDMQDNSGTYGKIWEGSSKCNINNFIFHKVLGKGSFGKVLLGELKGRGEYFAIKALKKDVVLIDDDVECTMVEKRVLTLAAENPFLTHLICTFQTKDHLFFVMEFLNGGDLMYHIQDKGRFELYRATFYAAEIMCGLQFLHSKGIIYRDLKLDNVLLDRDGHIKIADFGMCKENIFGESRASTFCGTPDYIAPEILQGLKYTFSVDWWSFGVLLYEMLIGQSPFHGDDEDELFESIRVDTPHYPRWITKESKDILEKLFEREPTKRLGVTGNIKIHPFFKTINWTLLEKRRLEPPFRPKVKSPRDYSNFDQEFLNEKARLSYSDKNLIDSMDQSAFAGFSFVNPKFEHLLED
How it was run: as §1

[9] = target: T9, CHK2 (Homo sapiens, UniProt O96017)
T9 construct: purchased Reaction Biology Corp
T9 sequence (O96017 whole entry): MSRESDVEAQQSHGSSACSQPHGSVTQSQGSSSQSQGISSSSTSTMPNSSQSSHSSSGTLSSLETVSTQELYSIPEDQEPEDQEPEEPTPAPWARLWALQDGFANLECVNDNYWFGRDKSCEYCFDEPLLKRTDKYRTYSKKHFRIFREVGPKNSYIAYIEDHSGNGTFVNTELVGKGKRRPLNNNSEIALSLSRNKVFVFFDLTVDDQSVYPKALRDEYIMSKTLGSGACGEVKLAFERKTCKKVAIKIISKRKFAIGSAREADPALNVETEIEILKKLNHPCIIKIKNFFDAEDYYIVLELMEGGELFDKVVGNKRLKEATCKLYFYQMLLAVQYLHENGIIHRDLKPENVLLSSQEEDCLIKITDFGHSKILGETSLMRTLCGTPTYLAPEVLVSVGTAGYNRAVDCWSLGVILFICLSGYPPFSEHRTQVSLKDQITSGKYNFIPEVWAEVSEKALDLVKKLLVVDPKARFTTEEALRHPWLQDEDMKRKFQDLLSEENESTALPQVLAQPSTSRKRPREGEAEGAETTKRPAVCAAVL
How it was run: as §1

[10] = target: T10, PKA (Homo sapiens, UniProt P17612)
T10 construct: purchased Reaction Biology Corp
How it was run: as §1

[11] = read-out: % Enzyme Activity (relative to DMSO controls) AVG
[12] = read-out: % Enzyme Activity (relative to DMSO controls) Data 1
[13] = read-out: % Enzyme Activity (relative to DMSO controls) Data 2

T1 sequence (Q16513 whole entry): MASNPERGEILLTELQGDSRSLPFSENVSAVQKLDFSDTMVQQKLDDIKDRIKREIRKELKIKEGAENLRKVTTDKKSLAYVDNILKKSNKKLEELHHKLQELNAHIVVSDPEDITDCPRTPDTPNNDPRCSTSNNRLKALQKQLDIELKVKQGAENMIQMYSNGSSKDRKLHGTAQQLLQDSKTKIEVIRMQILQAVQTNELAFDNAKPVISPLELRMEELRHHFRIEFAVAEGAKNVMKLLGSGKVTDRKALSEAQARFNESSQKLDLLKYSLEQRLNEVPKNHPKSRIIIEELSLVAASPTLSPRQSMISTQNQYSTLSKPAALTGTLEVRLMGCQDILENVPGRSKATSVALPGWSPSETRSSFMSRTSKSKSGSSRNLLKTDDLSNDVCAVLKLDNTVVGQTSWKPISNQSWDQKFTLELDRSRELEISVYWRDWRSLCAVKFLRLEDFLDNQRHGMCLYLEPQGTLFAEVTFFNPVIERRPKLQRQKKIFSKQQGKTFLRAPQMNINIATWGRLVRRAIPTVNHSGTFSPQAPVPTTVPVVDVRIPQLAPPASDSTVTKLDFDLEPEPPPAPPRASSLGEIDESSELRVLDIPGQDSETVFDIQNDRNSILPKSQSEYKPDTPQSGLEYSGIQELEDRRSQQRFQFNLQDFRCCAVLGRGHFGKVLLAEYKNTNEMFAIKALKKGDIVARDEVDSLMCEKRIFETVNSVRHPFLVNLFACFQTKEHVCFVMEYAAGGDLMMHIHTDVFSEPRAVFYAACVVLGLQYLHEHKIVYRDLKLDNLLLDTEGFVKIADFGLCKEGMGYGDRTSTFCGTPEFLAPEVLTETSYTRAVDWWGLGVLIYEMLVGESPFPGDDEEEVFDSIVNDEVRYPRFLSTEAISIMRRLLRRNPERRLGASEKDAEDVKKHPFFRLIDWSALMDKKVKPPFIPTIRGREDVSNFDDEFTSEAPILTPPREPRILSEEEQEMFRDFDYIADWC

CC(C)(C)C(=O)N1N=CC[C@H]1c1ccccc1 [GSK′963]
remaining activity at 10 µM [1, 11]: 93.3%
remaining activity at 10 µM [1, 12]: 97.5%
remaining activity at 10 µM [1, 13]: 89.2%
remaining activity at 10 µM [2, 11]: 102%
remaining activity at 10 µM [2, 12]: 104%
remaining activity at 10 µM [2, 13]: 99.3%
remaining activity at 10 µM [3, 11]: 80.5%
remaining activity at 10 µM [3, 12]: 78.3%
remaining activity at 10 µM [3, 13]: 82.6%
remaining activity at 10 µM [4, 11]: 105%
remaining activity at 10 µM [4, 12]: 98.2%
remaining activity at 10 µM [4, 13]: 112%
remaining activity at 10 µM [5, 11]: 103%
remaining activity at 10 µM [5, 12]: 104%
remaining activity at 10 µM [5, 13]: 101%
remaining activity at 10 µM [6, 11]: 103%
remaining activity at 10 µM [6, 12]: 105%
remaining activity at 10 µM [6, 13]: 102%
remaining activity at 10 µM [7, 11]: 105%
remaining activity at 10 µM [7, 12]: 105%
remaining activity at 10 µM [7, 13]: 105%
remaining activity at 10 µM [8, 11]: 106%
remaining activity at 10 µM [8, 12]: 106%
remaining activity at 10 µM [8, 13]: 107%
remaining activity at 10 µM [9, 11]: 105%
remaining activity at 10 µM [9, 12]: 106%
remaining activity at 10 µM [9, 13]: 104%
remaining activity at 10 µM [10, 11]: 110%
remaining activity at 10 µM [10, 12]: 112%
remaining activity at 10 µM [10, 13]: 107%
